Experimental data from patent US20240300932A1, “N-PHENYLIMINE DERIVATIVE AND PREPARATION METHOD AND USE THEREOF” (Guizhou University, priority 2023, published 2024).

Columns and labels:
Abutilon theophrasti = test: Post-emergence herbicidal activity test (stem and leaf spray, pot culture); assay type: in vivo; conditions: 3 weeks after spraying
Procedure, shortened: (§1)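 Read-out: fresh weight control rate 3 weeks post-spray, graded 5 (≥85%) down to 0 (<5%). Foliar spray at 2–3-leaf stage; rates 10, 5, 2.5 g/mu; acetone + Tween 80 formulation with methyl oleate synergist; greenhouse 20–30 °C, natural light.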

Amaranthus retroflexus = test: as above; assay type: in vivo; conditions: 3 weeks after spraying
Procedure, shortened: as §1

Echinochloa crusgalli = test: as above; assay type: in vivo; conditions: 3 weeks after spraying
Procedure, shortened: as §1

Portulaca oleracea = test: as above; assay type: in vivo; conditions: 3 weeks after spraying
Procedure, shortened: as §1

Setaria viridis = test: as above; assay type: in vivo; conditions: 3 weeks after spraying
Procedure, shortened: as §1

Trifoliumre pensL. = test: Post-emergence herbicidal activity test (stem and leaf spray, pot culture); assay type: in vivo; conditions: 3 weeks after spraying
Procedure, shortened: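 Rates of 10, 5 and 2.5 g/mu were applied in a single spray-tower treatment to 2–3-leaf plants, thinned to 10 per pot. Formulation: acetone solution, Tween 80, 1.5 L/ha methyl oleate synergist. Weed response assessed after 3 further greenhouse weeks; mean of three experiments.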

Row | melting point [°C] | SMILES | Post-emergence herbicidal activity, A. theophrasti (grade) (Abutilon theophrasti; dosage 2.5 g/mu) | Post-emergence herbicidal activity, A. theophrasti (grade) (Abutilon theophrasti; dosage 5 g/mu) | Post-emergence herbicidal activity, A. theophrasti (grade) (Abutilon theophrasti; dosage 10 g/mu) | Post-emergence herbicidal activity, A. retroflexus (grade) (Amaranthus retroflexus; dosage 2.5 g/mu) | Post-emergence herbicidal activity, A. retroflexus (grade) (Amaranthus retroflexus; dosage 5 g/mu) | Post-emergence herbicidal activity, A. retroflexus (grade) (Amaranthus retroflexus; dosage 10 g/mu) | Post-emergence herbicidal activity, E. crusgalli (grade) (Echinochloa crusgalli; dosage 2.5 g/mu) | Post-emergence herbicidal activity, E. crusgalli (grade) (Echinochloa crusgalli; dosage 5 g/mu) | Post-emergence herbicidal activity, E. crusgalli (grade) (Echinochloa crusgalli; dosage 10 g/mu) | Post-emergence herbicidal activity, P. oleracea (grade) (Portulaca oleracea; dosage 2.5 g/mu) | Post-emergence herbicidal activity, P. oleracea (grade) (Portulaca oleracea; dosage 5 g/mu) | Post-emergence herbicidal activity, P. oleracea (grade) (Portulaca oleracea; dosage 10 g/mu) | Post-emergence herbicidal activity, S. viridis (grade) (Setaria viridis; dosage 2.5 g/mu) | Post-emergence herbicidal activity, S. viridis (grade) (Setaria viridis; dosage 5 g/mu) | Post-emergence herbicidal activity, S. viridis (grade) (Setaria viridis; dosage 10 g/mu) | Post-emergence herbicidal activity, Trifoliumre pensL. (grade) (Trifoliumre pensL.; dosage 2.5 g/mu) | Post-emergence herbicidal activity, Trifoliumre pensL. (grade) (Trifoliumre pensL.; dosage 5 g/mu) | Post-emergence herbicidal activity, Trifoliumre pensL. (grade) (Trifoliumre pensL.; dosage 10 g/mu)
1 | 161 to 167 | Cc1ccccc1-c1noc(COc2cc(N3C(=O)C4=C(CCCC4)C3=O)c(F)cc2Cl)n1 [Compound A2, 2-(4-chloro-2-fluoro-5-((3-(2-tolyl)-1,2,4-oxadiazole-5-yl)methoxy)phenyl)-4,5,6,7-tetrahydro-1H-isoindole-1,3(2H)-dione] | 5 (Grade 5: the growth control rate is greater than or equal to 85%) | 5 (Grade 5: the growth control rate is greater than or equal to 85%) | 5 (Grade 5: the growth control rate is greater than or equal to 85%) | 5 (Grade 5: the growth control rate is greater than or equal to 85%) | 5 (Grade 5: the growth control rate is greater than or equal to 85%) | 5 (Grade 5: the growth control rate is greater than or equal to 85%) | 1 (Grade 1: the growth control rate is greater than or equal to 5% and less than 20%) | 2 (Grade 2: the growth control rate is greater than or equal to 20% and less than 40%) | 3 (Grade 3: the growth control rate is greater than or equal to 40% and less than 60%) | 4 (Grade 4: the growth control rate is greater than or equal to 60% and less than 85%) | 5 (Grade 5: the growth control rate is greater than or equal to 85%) | 5 (Grade 5: the growth control rate is greater than or equal to 85%) | 2 (Grade 2: the growth control rate is greater than or equal to 20% and less than 40%) | 3 (Grade 3: the growth control rate is greater than or equal to 40% and less than 60%) | 4 (Grade 4: the growth control rate is greater than or equal to 60% and less than 85%) | 4 (Grade 4: the growth control rate is greater than or equal to 60% and less than 85%) | 5 (Grade 5: the growth control rate is greater than or equal to 85%) | 5 (Grade 5: the growth control rate is greater than or equal to 85%)
2 | 158 to 162 | O=C1C2=C(CCCC2)C(=O)N1c1cc(OCc2nnc(-c3cccc(Cl)c3)o2)c(Cl)cc1F [Compound B2, 2-(4-chloro-5-((5-(3-chlorophenyl)-1,3,4-oxadiazole-2-yl)methoxy)-2-fluorophenyl)-4,5,6,7-tetrahydro-1H-isoindole-1,3(2H)-dione] | 5 (Grade 5: the growth control rate is greater than or equal to 85%) | 5 (Grade 5: the growth control rate is greater than or equal to 85%) | 5 (Grade 5: the growth control rate is greater than or equal to 85%) | 5 (Grade 5: the growth control rate is greater than or equal to 85%) | 5 (Grade 5: the growth control rate is greater than or equal to 85%) | 5 (Grade 5: the growth control rate is greater than or equal to 85%) | 1 (Grade 1: the growth control rate is greater than or equal to 5% and less than 20%) | 2 (Grade 2: the growth control rate is greater than or equal to 20% and less than 40%) | 3 (Grade 3: the growth control rate is greater than or equal to 40% and less than 60%) | 5 (Grade 5: the growth control rate is greater than or equal to 85%) | 5 (Grade 5: the growth control rate is greater than or equal to 85%) | 5 (Grade 5: the growth control rate is greater than or equal to 85%) | 2 (Grade 2: the growth control rate is greater than or equal to 20% and less than 40%) | 3 (Grade 3: the growth control rate is greater than or equal to 40% and less than 60%) | 4 (Grade 4: the growth control rate is greater than or equal to 60% and less than 85%) | 5 (Grade 5: the growth control rate is greater than or equal to 85%) | 5 (Grade 5: the growth control rate is greater than or equal to 85%) | 5 (Grade 5: the growth control rate is greater than or equal to 85%)
3 | 144 to 147 | Cc1ccccc1-c1nnc(COc2cc(N3C(=O)C4=C(CCCC4)C3=O)c(F)cc2Cl)o1 [Compound B9, 2-(4-chloro-2-fluoro-5-((5-(2-tolyl)-1,3,4-oxadiazole-2-yl)methoxy)phenyl)-4,5,6,7-tetrahydro-1H-isoindole-1,3(2H)-dione] | 5 (Grade 5: the growth control rate is greater than or equal to 85%) | 5 (Grade 5: the growth control rate is greater than or equal to 85%) | 5 (Grade 5: the growth control rate is greater than or equal to 85%) | 5 (Grade 5: the growth control rate is greater than or equal to 85%) | 5 (Grade 5: the growth control rate is greater than or equal to 85%) | 5 (Grade 5: the growth control rate is greater than or equal to 85%) | 1 (Grade 1: the growth control rate is greater than or equal to 5% and less than 20%) | 2 (Grade 2: the growth control rate is greater than or equal to 20% and less than 40%) | 3 (Grade 3: the growth control rate is greater than or equal to 40% and less than 60%) | 5 (Grade 5: the growth control rate is greater than or equal to 85%) | 5 (Grade 5: the growth control rate is greater than or equal to 85%) | 5 (Grade 5: the growth control rate is greater than or equal to 85%) | 2 (Grade 2: the growth control rate is greater than or equal to 20% and less than 40%) | 3 (Grade 3: the growth control rate is greater than or equal to 40% and less than 60%) | 4 (Grade 4: the growth control rate is greater than or equal to 60% and less than 85%) | 5 (Grade 5: the growth control rate is greater than or equal to 85%) | 5 (Grade 5: the growth control rate is greater than or equal to 85%) | 5 (Grade 5: the growth control rate is greater than or equal to 85%)
4 | 104 to 106 | Cc1ccc(-c2nnc(COc3cc(N4C(=O)C5=C(CCCC5)C4=O)c(F)cc3Cl)o2)cc1 [Compound B13, 2-(4-chloro-2-fluoro-5-((5-(4-tolyl)-1,3,4-oxadiazole-2-yl)methoxy)phenyl)-4,5,6,7-tetrahydro-1H-isoindole-1,3(2H)-dione] | 5 (Grade 5: the growth control rate is greater than or equal to 85%) | 5 (Grade 5: the growth control rate is greater than or equal to 85%) | 5 (Grade 5: the growth control rate is greater than or equal to 85%) | 5 (Grade 5: the growth control rate is greater than or equal to 85%) | 5 (Grade 5: the growth control rate is greater than or equal to 85%) | 5 (Grade 5: the growth control rate is greater than or equal to 85%) | 1 (Grade 1: the growth control rate is greater than or equal to 5% and less than 20%) | 2 (Grade 2: the growth control rate is greater than or equal to 20% and less than 40%) | 3 (Grade 3: the growth control rate is greater than or equal to 40% and less than 60%) | 5 (Grade 5: the growth control rate is greater than or equal to 85%) | 5 (Grade 5: the growth control rate is greater than or equal to 85%) | 5 (Grade 5: the growth control rate is greater than or equal to 85%) | 2 (Grade 2: the growth control rate is greater than or equal to 20% and less than 40%) | 3 (Grade 3: the growth control rate is greater than or equal to 40% and less than 60%) | 4 (Grade 4: the growth control rate is greater than or equal to 60% and less than 85%) | 5 (Grade 5: the growth control rate is greater than or equal to 85%) | 5 (Grade 5: the growth control rate is greater than or equal to 85%) | 5 (Grade 5: the growth control rate is greater than or equal to 85%)
